Assay results taken from patent US9931428B2, “Ophthalmic compositions” (priority 2011, dated 2018).

How the values were obtained:
Assay in all cases: BS EN1276 quantitative suspension test, bactericidal activity, dirty conditions
Type in all cases: cell-based
Settings in all cases: aqueous solution of test article; EN 1276 dirty conditions
[1] = system: Staphylococcus aureus NCTC 6571
[2] = system: Bacillus subtillus 10262
[3] = system: Escherichia coli 11867
[4] = system: Pseudomonas aeruginosa ATCC 15442

Compound: O=C(O)CC(O)(CC(=O)O)C(=O)O [Citric acid, citric acid]
- Microbial reduction [1]: 3.02 × 10^2
- Microbial reduction [2]: 2.29 × 10^3
- Microbial reduction [3]: 6.46 × 10^2
- Microbial reduction [4]: 2.69 × 10^3
